In PubChem BioAssay AID1259407 (Chemical Carcinogenesis Research Information System (CCRIS), 2018):
The source made the active and inactive calls. The rule behind the calls is not given here.

Test system: CCRIS mutagenicity, Ames/micronucleus/aberration tests
Test: CCRIS mutagenicity studies
[1] = Test System: AMES SALMONELLA TYPHIMURIUM, Strain/Indicator: TA97, Metabolic Activation: HAMSTER, LIVER, S-9, AROCLOR 1254 (10 OR 30%), Method: PREINCUBATION
[2] = Test System: AMES SALMONELLA TYPHIMURIUM, Strain/Indicator: TA97, Metabolic Activation: NONE, Method: PREINCUBATION
[3] = Test System: AMES SALMONELLA TYPHIMURIUM, Strain/Indicator: TA97, Metabolic Activation: RAT, LIVER, S-9, AROCLOR 1254 (10 OR 30%), Method: PREINCUBATION
[4] = Test System: AMES SALMONELLA TYPHIMURIUM, Strain/Indicator: TA98, Metabolic Activation: HAMSTER, LIVER, S-9, AROCLOR 1254 (10 OR 30%), Method: PREINCUBATION
[5] = Test System: AMES SALMONELLA TYPHIMURIUM, Strain/Indicator: TA98, Metabolic Activation: NONE, Method: PREINCUBATION
[6] = Test System: AMES SALMONELLA TYPHIMURIUM, Strain/Indicator: TA98, Metabolic Activation: RAT, LIVER, S-9, AROCLOR 1254 (10 OR 30%), Method: PREINCUBATION
[7] = Test System: AMES SALMONELLA TYPHIMURIUM, Strain/Indicator: TA100, Metabolic Activation: HAMSTER, LIVER, S-9, AROCLOR 1254 (10 OR 30%), Method: PREINCUBATION
[8] = Test System: AMES SALMONELLA TYPHIMURIUM, Strain/Indicator: TA100, Metabolic Activation: NONE, Method: PREINCUBATION
[9] = Test System: AMES SALMONELLA TYPHIMURIUM, Strain/Indicator: TA100, Metabolic Activation: RAT, LIVER, S-9, AROCLOR 1254 (10 OR 30%), Method: PREINCUBATION
[10] = Test System: AMES SALMONELLA TYPHIMURIUM, Strain/Indicator: TA1535, Metabolic Activation: HAMSTER, LIVER, S-9, AROCLOR 1254 (10 OR 30%), Method: PREINCUBATION
[11] = Test System: AMES SALMONELLA TYPHIMURIUM, Strain/Indicator: TA1535, Metabolic Activation: NONE, Method: PREINCUBATION
[12] = Test System: AMES SALMONELLA TYPHIMURIUM, Strain/Indicator: TA1535, Metabolic Activation: RAT, LIVER, S-9, AROCLOR 1254 (10 OR 30%), Method: PREINCUBATION
[13] = Test System: AMES SALMONELLA TYPHIMURIUM, Strain/Indicator: TA98, Metabolic Activation: NONE, Method: STANDARD PLATE
[14] = Test System: AMES SALMONELLA TYPHIMURIUM, Strain/Indicator: TA100, Metabolic Activation: NONE, Method: STANDARD PLATE
[15] = Test System: AMES SALMONELLA TYPHIMURIUM, Strain/Indicator: TA98, Metabolic Activation: RAT, LIVER, S-9, AROCLOR 1254, Method: STANDARD PLATE
[16] = Test System: AMES SALMONELLA TYPHIMURIUM, Strain/Indicator: TA100, Metabolic Activation: RAT, LIVER, S-9, AROCLOR 1254, Method: STANDARD PLATE
[17] = Test System: AMES SALMONELLA TYPHIMURIUM, Strain/Indicator: TA1535, Metabolic Activation: NONE, Method: STANDARD PLATE
[18] = Test System: AMES SALMONELLA TYPHIMURIUM, Strain/Indicator: TA1535, Metabolic Activation: RAT, LIVER, S-9, AROCLOR 1254, Method: STANDARD PLATE
[19] = Test System: AMES SALMONELLA TYPHIMURIUM, Strain/Indicator: TA1537, Metabolic Activation: NONE, Method: STANDARD PLATE
[20] = Test System: AMES SALMONELLA TYPHIMURIUM, Strain/Indicator: TA1537, Metabolic Activation: RAT, LIVER, S-9, AROCLOR 1254, Method: STANDARD PLATE
[21] = Test System: AMES SALMONELLA TYPHIMURIUM, Strain/Indicator: TA1538, Metabolic Activation: NONE, Method: STANDARD PLATE
[22] = Test System: AMES SALMONELLA TYPHIMURIUM, Strain/Indicator: TA1538, Metabolic Activation: RAT, LIVER, S-9, AROCLOR 1254, Method: STANDARD PLATE

**Q.** Which mutagenic call (End Point: IN VITRO CHROMOSOMAL ABERRATIONS, Test System: CHINESE HAMSTER LUNG CELLS (CHL), Metabolic Activation: RAT, LIVER, S-9, KC-400) does the source give for `CC(C)Oc1ccc(Nc2ccccc2)cc1` here?
**A.** inactive; negative; authors describe results as inconclusive

**Q.** What about the mutagenic call (End Point: IN VITRO CHROMOSOMAL ABERRATIONS, Test System: CHINESE HAMSTER OVARY CELLS (CHO), Metabolic Activation: NONE) of the same compound?
**A.** inactive; negative

**Q.** What about the mutagenic call (End Point: IN VITRO CHROMOSOMAL ABERRATIONS, Test System: CHINESE HAMSTER OVARY CELLS (CHO), Metabolic Activation: RAT, LIVER, S-9, AROCLOR 1254) of the same compound?
**A.** inactive; negative

**Q.** What about the mutagenic call (End Point: IN VITRO CHROMOSOMAL ABERRATIONS, Test System: CHO-LB CELLS, Metabolic Activation: NONE) of the same compound?
**A.** inactive; negative

**Q.** What about the mutagenic call (End Point: IN VITRO CHROMOSOMAL ABERRATIONS, Test System: CHO-LB CELLS, Metabolic Activation: RAT, LIVER, S-9, AROCLOR 1254) of the same compound?
**A.** inactive; negative

**Q.** And the mutagenic call [1]?
**A.** inactive; negative

**Q.** And the mutagenic call [2]?
**A.** inactive; negative

**Q.** What about the mutagenic call [3] of the same compound?
**A.** inactive; negative

**Q.** What about the mutagenic call [4] of the same compound?
**A.** inactive; negative

**Q.** And the mutagenic call [5]?
**A.** inactive; negative

**Q.** What about the mutagenic call [6] of the same compound?
**A.** inactive; negative

**Q.** What about the mutagenic call [7] of the same compound?
**A.** inactive; negative

**Q.** What about the mutagenic call [8] of the same compound?
**A.** inactive; negative

**Q.** And the mutagenic call [9]?
**A.** inactive; negative

**Q.** What about the mutagenic call [10] of the same compound?
**A.** inactive; negative

**Q.** What about the mutagenic call [11] of the same compound?
**A.** inactive; negative

**Q.** And the mutagenic call [12]?
**A.** inactive; negative

**Q.** For `OCc1cc2cccc3ccc4cc5ccccc5c1c4c32`, which mutagenic call [13] is on record?
**A.** inactive; negative

**Q.** What about the mutagenic call [14] of the same compound?
**A.** inactive; negative

**Q.** What does the source list for `COc1c(N)cc(C)c(N)c1C`?
**A.** mutagenic call [13]: inactive; negative; mutagenic call [15]: inactive; negative; mutagenic call [14]: inactive; negative; mutagenic call [16]: inactive; negative; mutagenic call [17]: inactive; negative; mutagenic call [18]: inactive; negative; mutagenic call [19]: inactive; negative; mutagenic call [20]: inactive; negative; mutagenic call [21]: inactive; negative; mutagenic call [22]: inactive; negative

**Q.** With `CCCCCCC[CH2][Sn]1([CH2]CCCCCCC)[O]C(=O)C=CC(=O)[O]1` as the compound, how does the mutagenic call [1] read?
**A.** inactive; negative

**Q.** What about the mutagenic call [2] of the same compound?
**A.** inactive; negative

**Q.** And the mutagenic call [3]?
**A.** inactive; negative

**Q.** What about the mutagenic call [4] of the same compound?
**A.** inactive; negative

**Q.** And the mutagenic call [5]?
**A.** inactive; negative

**Q.** What about the mutagenic call [6] of the same compound?
**A.** inactive; negative

**Q.** And the mutagenic call [7]?
**A.** inactive; negative

**Q.** And the mutagenic call [8]?
**A.** inactive; negative

**Q.** What about the mutagenic call [9] of the same compound?
**A.** inactive; negative

**Q.** And the mutagenic call [10]?
**A.** inactive; negative

**Q.** What about the mutagenic call [11] of the same compound?
**A.** inactive; negative

**Q.** What about the mutagenic call [12] of the same compound?
**A.** inactive; negative

**Q.** For `Cc1c(N)nc(C(CC(N)=O)NCC(N)C(N)=O)nc1C(=O)NC(C(=O)NC(C)C(O)C(C)C(=O)NC(C(=O)NCCc1nc(-c2nc(C(=O)NCCc3cnc[nH]3)cs2)cs1)C(C)O)C(OC1OC(CO)C(O)C(O)C1OC1OC(CO)C(O)C(OC(N)=O)C1O)c1cnc[nH]1` (centres undefined), which mutagenic call (Test System: AMES SALMONELLA TYPHIMURIUM, Strain/Indicator: TA102, Metabolic Activation: NONE, Method: PREINCUBATION) is on record?
**A.** active; positive

**Q.** Which results are given for `O=S(=O)(O)Oc1ccc2ccc3cc4ccccc4c4ccc1c2c34`?
**A.** mutagenic call [5]: active; positive; mutagenic call (Test System: AMES SALMONELLA TYPHIMURIUM, Strain/Indicator: TA98, Metabolic Activation: RAT, LIVER, S-9, AROCLOR 1254, Method: PREINCUBATION): active; positive; mutagenic call (Test System: AMES SALMONELLA TYPHIMURIUM, Strain/Indicator: TA98, Metabolic Activation: RAT, LUNG, S-9, Method: PREINCUBATION): active; positive

**Q.** Which results are given for `Cc1cc(C)c2c(ccc3ccccc32)c1`?
**A.** mutagenic call [13]: inactive; negative; mutagenic call [15]: inactive; negative; mutagenic call [14]: inactive; negative; mutagenic call [16]: active; positive

**Q.** With `CC(C)N(C(=O)SCC(Cl)=C(Cl)Cl)C(C)C` as the compound, how does the mutagenic call [13] read?
**A.** inactive; negative

**Q.** And the mutagenic call [15]?
**A.** active; positive

**Q.** What about the mutagenic call [14] of the same compound?
**A.** inactive; negative

**Q.** And the mutagenic call [16]?
**A.** active; positive

**Q.** What about the mutagenic call [17] of the same compound?
**A.** inactive; negative

**Q.** And the mutagenic call [18]?
**A.** active; positive

**Q.** What about the mutagenic call [19] of the same compound?
**A.** inactive; negative

**Q.** And the mutagenic call [20]?
**A.** inactive; negative

**Q.** What about the mutagenic call [21] of the same compound?
**A.** inactive; negative

**Q.** And the mutagenic call [22]?
**A.** inactive; negative
